{"source": "patent US11759412B2", "about": "“Personal care compositions with glutathione precursor comprising 4-substituted resorcinols and amino acids” (Conopco, Inc., priority 2016, dated 2023)", "type_in_all_cases": "cell-based", "key": {"Aged Human Keratinocytes": {"system": "Aged Human Keratinocytes", "assay": "Glutathione Assay (total glutathione, GSH-GSSG Glo, menadione challenge)", "conditions": "for synergistic increase in GSH synthesis, combination with GAP amino acids vs either alone: resorcinol/test reagent combined with GAP, + menadione", "description": "Aged Human Keratinocytes (Cascade Biologics, now ThermoFisher Scientific, Waltham, Mass.) were maintained in Epi Life® medium containing 60 uM calcium chloride and 1% Human Keratinocyte Growth Supplement (both media components from ThermoFisher Scientific) in a humidified incubator with an atmosphere containing 5% CO2 at 37° C. The medium was refreshed every 2-3 days. Subsequently, cells were trypsinized at 90% confluency and seeded at a density of 1×10^4 per well into 96-well plates with white wall and clear bottom. One or two days after seeding, cell medium was replaced with Hank's Balanced Salt Solution (HBSS), and keratinocytes were pre-treated with GAP (or 0.12-0.240 mM sodium hydroxide vehicle control, pH 7.5) alone or in combination with additional test reagents described above or L-cystine esters alone for 1-2 hours. The concentration of all amino acids constituting the GAP mixture used in this assay are designated in the data tables, and fully described in the abbreviations list below.\nAfter one or two hours of pre-treatment with GAP or additional test reagents, alone or in combination, keratinocytes were then challenged with 25 uM menadione (Sigma-Aldrich), a known inducer of oxidative stress. After 18-20 hours, cells were harvested and analyzed for total glutathione levels using a commercially available kit (GSH-GSSG GLo Assay, Promega), a luminescence-based system for the detection and quantification of total glutathione in cultured cells. In summary, after cell treatment, the media was removed and replaced with a cell lysis reagent for 5 minutes at 20-25° C.; note, all remaining steps were also conducted at 20-25° C. Next, a luciferase generation reagent was added to each well and incubated for 30 minutes. Following this step, a luciferin detection reagent was added to each well and plates were incubated for 15 minutes. Finally, plates were then read for luminescence in a FlexStation 3 plate reader (Molecular Devices). Total glutathione levels were calculated after interpolation of glutathione concentrations from a standard curve. Experimental conditions were typically conducted in at least triplicate determinations. Statistical significance was calculated using 1-way ANOVA. Percent protection was calculated by using the calculated glutathione levels from each experiment in the following equation: […]"}, "Human Keratinocytes [1]": {"system": "Human Keratinocytes", "assay": "Reactive Oxygen Species (ROS) Assay (CellROX green, menadione)", "conditions": "+ menadione; for synergistic decrease in ROS production, combination with GAP amino acids vs either alone: resorcinol/test reagent combined with GAP", "description": "Human Keratinocytes (Promocell, Heidelberg, Germany) were maintained in EpiLife® keratinocyte medium containing 60 uM calcium chloride and 1% Human Keratinocyte Growth Supplement (HKGS) in a humidified incubator with an atmosphere containing 5% CO2 at 37° C. The medium was refreshed every other day. Subsequently, cells were trypsinized at 90% confluency and seeded at a density of 1-2×10^4 per well into 96-well plates with black wall and clear bottom. On the second day after seeding, cell medium was replaced with Hank's Balanced Salt Solution (HBSS) with or without menadione (10-25 uM), GAP (typically at 49 uM pyroglutamic acid, 60 uM cystine, 194 uM glycine), GAP vehicle (0.2 mM NaOH, pH 7.5), above-described additional test reagents, or combinations of GAP with additional test reagents or L-cystine esters alone, and incubated for additional 18 hours. For ROS detection, CellROX green (Life Tech, Thermo Fisher Scientific, Rockford, USA) reagent was added into each well to a final concentration of 15-25 uM and incubated for additional 2-4 hours at 37° C. in a humidified incubator. The ROS fluorescence was detected using a Tecan microplate reader (Excitation/Emission=490/525). Relative ROS production was calculated with normalization based on the vehicle control treatment which was set to 100%. Where indicated, percent protection was calculated as a comparison to menadione alone treatment, using the measured relative fluorescent units in the following equation: […]\nROS levels were evaluated together with cell viability because it is possible to get a false negative for ROS if treatment is so toxic, that at the time of assay, cells are dead (and there are no longer any detectable ROS). Decrease in ROS levels is meaningful if cells are still viable."}, "Human Keratinocytes [2]": {"system": "Human Keratinocytes", "assay": "Cell Viability Assay (CCK-8, menadione)", "conditions": "+ menadione", "description": "Human Keratinocytes (Promocell, Heidelberg, Germany) were maintained in EpiLife® keratinocyte medium containing 60 uM calcium chloride and 1% Human Keratinocyte Growth Supplement (HKGS). The medium was refreshed every other day. Subsequently, cells were trypsinized at 90% confluency and seeded at a density of 2×10^4 per well into 96-well transparent tissue culture plates. On the second day after seeding, cell medium was replaced with treatments as described above in ROS assay section. After 18 hours, […] (CCK-8) reagent (Dojindo, Kumamoto, Japan) was diluted 1:10 in HBSS and incubated with cells for 4 h at 37° C. in a humidified incubator. Optical absorption at 450 nm was measured using a Tecan Safire2 plate reader. Relative viability was calculated with normalization based on the vehicle control treatment, which was set to 100%.\nWhere indicated, percent protection was calculated as a comparison to menadione alone treatment, using the measured relative absorbance units in the following equation: […]"}, "[3]": {"conditions": "Table 2G, PER 10 uM + menadione"}, "[4]": {"conditions": "Table 2G, PER 20 uM + menadione"}, "[5]": {"conditions": "Table 2G, PER 50 uM + menadione"}, "[6]": {"conditions": "Table 2F, PER 20 uM where present"}, "[7]": {"conditions": "Table 2B, resorcinol (BR or IPR) 10 uM + menadione"}, "[8]": {"conditions": "Table 2B, resorcinol (BR or IPR) 50 uM + menadione"}, "[9]": {"conditions": "Table 2B, resorcinol (BR or IPR) 100 uM + menadione"}, "[10]": {"conditions": "Table 1B, BR 50 uM where present, + menadione 25 uM"}, "[11]": {"conditions": "Table 2E, BR 20 uM where present"}, "[12]": {"conditions": "Table 3D, 4-CHMR 10 uM + menadione"}, "[13]": {"conditions": "Table 3D, 4-CHMR 20 uM + menadione"}, "[14]": {"conditions": "Table 3D, 4-CHMR 50 uM + menadione"}, "[15]": {"conditions": "Table 3A, Olivetol or 3-hydroxytyrosol 10 uM + menadione"}, "[16]": {"conditions": "Table 3A, Olivetol or 3-hydroxytyrosol 20 uM + menadione"}, "[17]": {"conditions": "Table 3A, Olivetol or 3-hydroxytyrosol 50 uM + menadione"}}, "data": [{"smiles": "CC(c1ccccc1)c1ccc(O)cc1O", "note": "(centres unmarked) [PER, 4-(1-phenylethyl)resorcinol]", "values": [{"measurement": "% Protection (improvement vs vehicle control + menadione)", "setting": "Aged Human Keratinocytes; [3]", "value": "−2", "unit": "%"}, {"measurement": "Glutathione Synthesis, Mean (uM glutathione)", "setting": "Aged Human Keratinocytes; [3]", "value": 0.12, "unit": "µM"}, {"measurement": "% Protection (improvement vs vehicle control + menadione)", "setting": "Aged Human Keratinocytes; [4]", "value": 3, "unit": "%"}, {"measurement": "Glutathione Synthesis, Mean (uM glutathione)", "setting": "Aged Human Keratinocytes; [4]", "value": 0.25, "unit": "µM"}, {"measurement": "% Protection (improvement vs vehicle control + menadione)", "setting": "Aged Human Keratinocytes; [5]", "value": 12, "unit": "%"}, {"measurement": "Glutathione Synthesis, Mean (uM glutathione)", "setting": "Aged Human Keratinocytes; [5]", "value": 0.50, "unit": "µM"}, {"measurement": "synergistic increase in GSH synthesis, combination with GAP amino acids vs either alone", "setting": "Aged Human Keratinocytes", "value": "not observed"}, {"measurement": "% protection (improvement vs vehicle control + menadione), ROS", "setting": "Human Keratinocytes [1]; [6]", "value": "−6.74", "unit": "%"}, {"measurement": "Mean ROS production (% of vehicle control)", "setting": "Human Keratinocytes [1]; [6]", "value": 321.5, "unit": "%"}, {"measurement": "synergistic decrease in ROS production, combination with GAP amino acids vs either alone", "setting": "Human Keratinocytes [1]", "value": "synergistic decrease"}, {"measurement": "% Protection (improvement vs vehicle control + menadione), cell viability", "setting": "Human Keratinocytes [2]; [6]", "value": 1.09, "unit": "%"}, {"measurement": "Cell viability (% of control)", "setting": "Human Keratinocytes [2]; [6]", "value": 62.3, "unit": "%"}]}, {"smiles": "CC(C)c1ccc(O)cc1O", "note": "[IPR, 4-isopropylresorcinol]", "values": [{"measurement": "% Protection (improvement vs. vehicle control + menadione)", "setting": "Aged Human Keratinocytes; [7]", "value": 6, "unit": "%"}, {"measurement": "Glutathione Synthesis, Mean (uM glutathione)", "setting": "Aged Human Keratinocytes; [7]", "value": 0.12, "unit": "µM"}, {"measurement": "% Protection (improvement vs. vehicle control + menadione)", "setting": "Aged Human Keratinocytes; [8]", "value": 6, "unit": "%"}, {"measurement": "Glutathione Synthesis, Mean (uM glutathione)", "setting": "Aged Human Keratinocytes; [8]", "value": 0.12, "unit": "µM"}, {"measurement": "% Protection (improvement vs. vehicle control + menadione)", "setting": "Aged Human Keratinocytes; [9]", "value": 8, "unit": "%"}, {"measurement": "Glutathione Synthesis, Mean (uM glutathione)", "setting": "Aged Human Keratinocytes; [9]", "value": 0.16, "unit": "µM"}, {"measurement": "synergistic increase in GSH synthesis, combination with GAP amino acids vs either alone", "setting": "Aged Human Keratinocytes", "value": "synergistic increase"}]}, {"smiles": "CCCCc1ccc(O)cc1O", "note": "[BR, 4-butylresorcinol]", "values": [{"measurement": "% Protection (improvement vs. vehicle control + menadione)", "setting": "Aged Human Keratinocytes; [10]", "value": "−1^1%"}, {"measurement": "Glutathione Synthesis, Mean (uM glutathione)", "setting": "Aged Human Keratinocytes; [10]", "value": "0.06^1 uM"}, {"measurement": "% Protection (improvement vs. vehicle control + menadione)", "setting": "Aged Human Keratinocytes; [7]", "value": 5, "unit": "%"}, {"measurement": "Glutathione Synthesis, Mean (uM glutathione)", "setting": "Aged Human Keratinocytes; [7]", "value": 0.10, "unit": "µM"}, {"measurement": "% Protection (improvement vs. vehicle control + menadione)", "setting": "Aged Human Keratinocytes; [8]", "value": 3, "unit": "%"}, {"measurement": "Glutathione Synthesis, Mean (uM glutathione)", "setting": "Aged Human Keratinocytes; [8]", "value": 0.07, "unit": "µM"}, {"measurement": "% Protection (improvement vs. vehicle control + menadione)", "setting": "Aged Human Keratinocytes; [9]", "value": 6, "unit": "%"}, {"measurement": "Glutathione Synthesis, Mean (uM glutathione)", "setting": "Aged Human Keratinocytes; [9]", "value": 0.13, "unit": "µM"}, {"measurement": "synergistic increase in GSH synthesis, combination with GAP amino acids vs either alone", "setting": "Aged Human Keratinocytes", "value": "synergistic increase"}, {"measurement": "% protection (improvement vs vehicle control + menadione), ROS", "setting": "Human Keratinocytes [1]; [11]", "value": 0.95, "unit": "%"}, {"measurement": "Mean ROS production (% of vehicle control)", "setting": "Human Keratinocytes [1]; [11]", "value": 220.7, "unit": "%"}, {"measurement": "synergistic decrease in ROS production, combination with GAP amino acids vs either alone", "setting": "Human Keratinocytes [1]", "value": "synergistic decrease"}, {"measurement": "% Protection (improvement vs vehicle control + menadione), cell viability", "setting": "Human Keratinocytes [2]; [11]", "value": "11.75^3%"}, {"measurement": "Cell viability (% of control)", "setting": "Human Keratinocytes [2]; [11]", "value": "74.1^3%"}]}, {"smiles": "Oc1ccc(CC2CCCCC2)c(O)c1", "note": "[Sample 4-CHMR, 4-(cyclohexylmethyl)resorcinol]", "values": [{"measurement": "% Protection", "setting": "Aged Human Keratinocytes; [12]", "value": "−4.6", "unit": "%"}, {"measurement": "Glutathione Synthesis, Mean (uM glutathione)", "setting": "Aged Human Keratinocytes; [12]", "value": 0.07, "unit": "µM"}, {"measurement": "% Protection", "setting": "Aged Human Keratinocytes; [13]", "value": "−6.2", "unit": "%"}, {"measurement": "Glutathione Synthesis, Mean (uM glutathione)", "setting": "Aged Human Keratinocytes; [13]", "value": 0.026, "unit": "µM"}, {"measurement": "% Protection", "setting": "Aged Human Keratinocytes; [14]", "value": "−1.7", "unit": "%"}, {"measurement": "Glutathione Synthesis, Mean (uM glutathione)", "setting": "Aged Human Keratinocytes; [14]", "value": 0.147, "unit": "µM"}, {"measurement": "synergistic increase in GSH synthesis, combination with GAP amino acids vs either alone", "setting": "Aged Human Keratinocytes", "value": "did not result"}]}, {"smiles": "CCCCCc1cc(O)cc(O)c1", "note": "[Olivetol, 5-pentylresorcinol]", "values": [{"measurement": "% Protection (improvement vs vehicle control + menadione)", "setting": "Aged Human Keratinocytes; [15]", "value": "−1", "unit": "%"}, {"measurement": "Glutathione Synthesis, Mean (uM glutathione)", "setting": "Aged Human Keratinocytes; [15]", "value": 0.14, "unit": "µM"}, {"measurement": "% Protection (improvement vs vehicle control + menadione)", "setting": "Aged Human Keratinocytes; [16]", "value": "−1", "unit": "%"}, {"measurement": "Glutathione Synthesis, Mean (uM glutathione)", "setting": "Aged Human Keratinocytes; [16]", "value": 0.13, "unit": "µM"}, {"measurement": "% Protection (improvement vs vehicle control + menadione)", "setting": "Aged Human Keratinocytes; [17]", "value": "−2", "unit": "%"}, {"measurement": "Glutathione Synthesis, Mean (uM glutathione)", "setting": "Aged Human Keratinocytes; [17]", "value": 0.11, "unit": "µM"}, {"measurement": "synergistic increase in GSH synthesis, combination with GAP amino acids vs either alone", "setting": "Aged Human Keratinocytes", "value": "did not result"}]}]}
